Data on twelve compounds can be found in patent US20230114728A1 (Venatorx Pharmaceuticals, Inc., priority 2019, published 2023).

SMILES strings stand for the structures. Converted amounts (≈) assume the structure as drawn.

Common to all, as to test: Liquid broth MIC in Fastidious broth
What all share (assay type): cell-based

The subject of experiment [1] is N. gonorrhoeae ATCC 49226. The conditions noted are these: Neisseria gonorrhoeae, ATCC49226; N. gonorrhoeae strain ATCC 49226; Fastidious broth; read-out: Minimum Inhibitory Concentration, N. gonorrhoeae ATCC 49226. In short, it runs like this:
(§1)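 Colonies were swabbed from chocolate agar after 24 h growth and standardised by optical density at 600 nm. Compounds were serially diluted twofold in Fastidious broth, and bacteria added to give 5×10^5 CFU/mL. After about 24 h at 36 °C in 5% CO2, the lowest concentration allowing under 10% growth was taken as MIC.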

In another experiment the test system is N. gonorrhoeae FA1090. The conditions noted are these: Neisseria gonorrhoeae; N. gonorrhoeae strain FA1090; Fastidious broth; read-out: Minimum Inhibitory Concentration, N. gonorrhoeae FA1090. In a few lines: as §1
Another experiment concerns N. gonorrhoeae H041. As to conditions: Neisseria gonorrhoeae, H041, read-out: Minimum Inhibitory Concentration, N. gonorrhoeae H041. In short, it runs like this: as §1
Another experiment deals with N. gonorrhoeae WHO G. As to conditions: Neisseria gonorrhoeae; N. gonorrhoeae strain WHO G; Fastidious broth; read-out: Minimum Inhibitory Concentration, N. gonorrhoeae WHO G. In short, it runs like this:
as §1

The next experiment concerns N. gonorrhoeae WHO K. The conditions noted are these: Neisseria gonorrhoeae, read-out: Minimum Inhibitory Concentration, N. gonorrhoeae WHO K. In short, it runs like this:
as §1

In another experiment the test system is N. gonorrhoeae WHO L. The conditions noted are these: Neisseria gonorrhoeae; N. gonorrhoeae strain WHO L; Fastidious broth; read-out: Minimum Inhibitory Concentration, N. gonorrhoeae WHO L. In short, it runs like this: as §1
Another experiment deals with N. gonorrhoeae WHO Q. The conditions noted are these: Neisseria gonorrhoeae, read-out: Minimum Inhibitory Concentration, N. gonorrhoeae WHO Q. In a few lines: as §1
In the next experiment the test system is N. gonorrhoeae WHO Z. As to conditions: Neisseria gonorrhoeae, read-out: Minimum Inhibitory Concentration, N. gonorrhoeae WHO Z. In a few lines: as §1

With `CCN1CCN(C(=O)NC(C(=O)N[C@H]2Cc3cccc(C(=O)O)c3OB2O)c2cccc([N+](=O)[O-])c2)C(=O)C1=O` (stereo partly drawn) [Example 75, (3R)-3-(2-(4-ethyl-2,3-dioxopiperazine-1-carboxamido)-2-(3-nitrophenyl)acetamido)-2-hydroxy-3,4-dihydro-2H-benzo[e][1,2]oxaborinine-8-carboxylic acid], the MIC was 4 to 8 µg/mL (≈ 7.23 to 14.5 µM) in experiment [1]; 0.25 to 0.5 µg/mL (≈ 0.452 to 0.904 µM) with N. gonorrhoeae FA1090; greater than 64 µg/mL with N. gonorrhoeae H041; 4 to 8 µg/mL (≈ 7.23 to 14.5 µM) with N. gonorrhoeae WHO G; greater than 64 µg/mL in the experiment on N. gonorrhoeae WHO K; greater than 64 µg/mL in the experiment with N. gonorrhoeae WHO L. Besides, the MIC in the experiment on N. gonorrhoeae WHO Q and in the experiment on N. gonorrhoeae WHO Z was 16 to 32 µg/mL (≈ 28.9 to 57.8 µM) in each case.

Regarding `CCN1CCN(C(=O)NC(C(=O)N[C@H]2Cc3cccc(C(=O)O)c3OB2O)c2cccc(NS(C)(=O)=O)c2)C(=O)C1=O` (stereo partly drawn) [Example 76, (3R)-3-(2-(4-ethyl-2,3-dioxopiperazine-1-carboxamido)-2-(3-(methylsulfonamido)phenyl)acetamido)-2-hydroxy-3,4-dihydro-2H-benzo[e][1,2]oxaborinine-8-carboxylic acid], the MIC in experiment [1] is greater than 64 µg/mL; with N. gonorrhoeae FA1090, 1 to 2 µg/mL (≈ 1.66 to 3.33 µM); in the experiment with N. gonorrhoeae H041 it was greater than 64 µg/mL; in the experiment with N. gonorrhoeae WHO G, 16 to 32 µg/mL (≈ 26.6 to 53.2 µM); in the experiment on N. gonorrhoeae WHO K it was greater than 64 µg/mL; in the experiment on N. gonorrhoeae WHO L it was greater than 64 µg/mL. The MIC with N. gonorrhoeae WHO Q and with N. gonorrhoeae WHO Z was greater than 64 µg/mL each time.

As for `CCN1CCN(C(=O)NC(C(=O)N[C@H]2Cc3cccc(C(=O)O)c3OB2O)c2cc(O)ccc2O)C(=O)C1=O` (stereo partly drawn) [Example 77, (3R)-3-(2-(2,5-dihydroxyphenyl)-2-(4-ethyl-2,3-dioxopiperazine-1-carboxamido)acetamido)-2-hydroxy-3,4-dihydro-2H-benzo[e][1,2]oxaborinine-8-carboxylic acid], the MIC in experiment [1] was 16 to 32 µg/mL (≈ 29.6 to 59.2 µM); in the experiment with N. gonorrhoeae FA1090 it was 4 to 8 µg/mL (≈ 7.4 to 14.8 µM); in the experiment with N. gonorrhoeae H041, greater than 64 µg/mL; with N. gonorrhoeae WHO G, 16 to 32 µg/mL (≈ 29.6 to 59.2 µM); in the experiment on N. gonorrhoeae WHO K it was greater than 64 µg/mL; with N. gonorrhoeae WHO L, greater than 64 µg/mL. Moreover, the MIC in the experiment on N. gonorrhoeae WHO Q and in the experiment with N. gonorrhoeae WHO Z was greater than 64 µg/mL each time.

Turning to `N=C(N)NCCN1CCN(C(=O)NC(C(=O)N[C@H]2Cc3ccc(F)c(C(=O)O)c3OB2O)c2ccc(C(=O)O)c(F)c2)C(=O)C1=O` (stereo partly drawn) [Example 78, (3R)-3-(2-(4-carboxy-3-fluorophenyl)-2-(4-(2-guanidinoethyl)-2,3-dioxopiperazine-1-carboxamido)acetamido)-7-fluoro-2-hydroxy-3,4-dihydro-2H-benzo[e][1,2]oxaborinine-8-carboxylic acid], the MIC in experiment [1] is 16 to 32 µg/mL (≈ 24.8 to 49.6 µM); with N. gonorrhoeae FA1090, 4 to 8 µg/mL (≈ 6.2 to 12.4 µM); in the experiment with N. gonorrhoeae H041 it was greater than 64 µg/mL; in the experiment on N. gonorrhoeae WHO G, 4 to 8 µg/mL (≈ 6.2 to 12.4 µM); in the experiment with N. gonorrhoeae WHO K, greater than 64 µg/mL; with N. gonorrhoeae WHO L, greater than 64 µg/mL. Further, the values for the MIC in the experiment on N. gonorrhoeae WHO Q and in the experiment on N. gonorrhoeae WHO Z were greater than 64 µg/mL and 16 to 32 µg/mL (≈ 24.8 to 49.6 µM), respectively.

As for `NCCN1CCN(C(=O)NC(C(=O)N[C@H]2Cc3cccc(C(=O)O)c3OB2O)c2cc(Cl)c(O)cc2F)C(=O)C1=O` (stereo partly drawn) [Example 87, (3R)-3-(2-(4-(2-aminoethyl)-2,3-dioxopiperazine-1-carboxamido)-2-(5-chloro-2-fluoro-4-hydroxyphenyl)acetamido)-2-hydroxy-3,4-dihydro-2H-benzo[e][1,2]oxaborinine-8-carboxylic acid], the MIC in experiment [1] was 16 to 32 µg/mL (≈ 27 to 54.1 µM); in the experiment on N. gonorrhoeae FA1090 it was 0.25 to 0.5 µg/mL (≈ 0.422 to 0.845 µM); with N. gonorrhoeae H041, greater than 64 µg/mL; with N. gonorrhoeae WHO G it was 4 to 8 µg/mL (≈ 6.76 to 13.5 µM); in the experiment with N. gonorrhoeae WHO K it was greater than 64 µg/mL; in the experiment with N. gonorrhoeae WHO L, 16 to 32 µg/mL (≈ 27 to 54.1 µM). Also, the MIC in the experiment on N. gonorrhoeae WHO Q and in the experiment on N. gonorrhoeae WHO Z was greater than 64 µg/mL each time.

`NCCN1CCN(C(=O)N[C@@H](C(=O)N[C@H]2Cc3cccc(C(=O)O)c3OB2O)c2cc(Cl)c(O)cc2Cl)C(=O)C1=O` [Example 90, (R)-3-((R)-2-(4-(2-aminoethyl)-2,3-dioxopiperazine-1-carboxamido)-2-(2,5-dichloro-4-hydroxyphenyl)acetamido)-2-hydroxy-3,4-dihydro-2H-benzo[e][1,2]oxaborinine-8-carboxylic acid]: the MIC in experiment [1] was greater than 64 µg/mL; with N. gonorrhoeae FA1090, 4 to 8 µg/mL (≈ 6.58 to 13.2 µM); in the experiment on N. gonorrhoeae H041, greater than 64 µg/mL; with N. gonorrhoeae WHO G, 16 to 32 µg/mL (≈ 26.3 to 52.6 µM); with N. gonorrhoeae WHO K, greater than 64 µg/mL; with N. gonorrhoeae WHO L, greater than 64 µg/mL. The MIC with N. gonorrhoeae WHO Q and in the experiment with N. gonorrhoeae WHO Z was greater than 64 µg/mL throughout.

As to `NCCN1CCN(C(=O)NC(C(=O)N[C@H]2Cc3cccc(C(=O)O)c3OB2O)c2cc(F)c(O)cc2F)C(=O)C1=O` (stereo partly drawn) [Example 93, (3R)-3-(2-(4-(2-aminoethyl)-2,3-dioxopiperazine-1-carboxamido)-2-(2,5-difluoro-4-hydroxyphenyl)acetamido)-2-hydroxy-3,4-dihydro-2H-benzo[e][1,2]oxaborinine-8-carboxylic acid], the MIC is greater than 64 µg/mL in experiment [1]; 1 to 2 µg/mL (≈ 1.74 to 3.48 µM) in the experiment with N. gonorrhoeae FA1090; greater than 64 µg/mL in the experiment on N. gonorrhoeae H041; 4 to 8 µg/mL (≈ 6.95 to 13.9 µM) in the experiment on N. gonorrhoeae WHO G; greater than 64 µg/mL with N. gonorrhoeae WHO K; greater than 64 µg/mL with N. gonorrhoeae WHO L. Moreover, the MIC in the experiment with N. gonorrhoeae WHO Q and with N. gonorrhoeae WHO Z was greater than 64 µg/mL in each case.

Consider `NCCN1CCN(C(=O)NC(C(=O)N[C@H]2Cc3cccc(C(=O)O)c3OB2O)c2c(F)cc(O)cc2Cl)C(=O)C1=O` (stereo partly drawn) [Example 94, (3R)-3-(2-(4-(2-aminoethyl)-2,3-dioxopiperazine-1-carboxamido)-2-(2-chloro-6-fluoro-4-hydroxyphenyl)acetamido)-2-hydroxy-3,4-dihydro-2H-benzo[e][1,2]oxaborinine-8-carboxylic acid], for which the MIC is greater than 64 µg/mL in experiment [1]; 4 to 8 µg/mL (≈ 6.76 to 13.5 µM) with N. gonorrhoeae FA1090; greater than 64 µg/mL with N. gonorrhoeae H041; 16 to 32 µg/mL (≈ 27 to 54.1 µM) in the experiment with N. gonorrhoeae WHO G; greater than 64 µg/mL with N. gonorrhoeae WHO K; greater than 64 µg/mL with N. gonorrhoeae WHO L. In addition, the MIC in the experiment on N. gonorrhoeae WHO Q and in the experiment with N. gonorrhoeae WHO Z was greater than 64 µg/mL in each case.

As for `CCN1CCN(C(=O)NC(C(=O)N[C@H]2Cc3cccc(C(=O)O)c3OB2O)c2c(F)cc(O)cc2Cl)C(=O)C1=O` (stereo partly drawn) [Example 95, (3R)-3-(2-(2-chloro-6-fluoro-4-hydroxyphenyl)-2-(4-ethyl-2,3-dioxopiperazine-1-carboxamido)acetamido)-2-hydroxy-3,4-dihydro-2H-benzo[e][1,2]oxaborinine-8-carboxylic acid], the MIC is 4 to 8 µg/mL (≈ 6.94 to 13.9 µM) in experiment [1]; less than 0.125 µg/mL with N. gonorrhoeae FA1090; 16 to 32 µg/mL (≈ 27.7 to 55.5 µM) in the experiment with N. gonorrhoeae H041; 1 to 2 µg/mL (≈ 1.73 to 3.47 µM) in the experiment with N. gonorrhoeae WHO G; 16 to 32 µg/mL (≈ 27.7 to 55.5 µM) with N. gonorrhoeae WHO K; 16 to 32 µg/mL (≈ 27.7 to 55.5 µM) in the experiment with N. gonorrhoeae WHO L. The MIC in the experiment on N. gonorrhoeae WHO Q and in the experiment on N. gonorrhoeae WHO Z was 16 to 32 µg/mL (≈ 27.7 to 55.5 µM) each time.

As to `CCN1CCN(C(=O)NC(C(=O)N[C@H]2Cc3cccc(C(=O)O)c3OB2O)c2cccc(NC(=O)c3cncnc3)c2)C(=O)C1=O` (stereo partly drawn) [Example 96, (3R)-3-(2-(4-ethyl-2,3-dioxopiperazine-1-carboxamido)-2-(3-(pyrimidine-5-carboxamido)phenyl)acetamido)-2-hydroxy-3,4-dihydro-2H-benzo[e][1,2]oxaborinine-8-carboxylic acid], the MIC in experiment [1] is greater than 64 µg/mL; with N. gonorrhoeae FA1090 it was 4 to 8 µg/mL (≈ 6.36 to 12.7 µM); in the experiment on N. gonorrhoeae H041 it was greater than 64 µg/mL; in the experiment on N. gonorrhoeae WHO G, 16 to 32 µg/mL (≈ 25.4 to 50.8 µM); in the experiment on N. gonorrhoeae WHO K, greater than 64 µg/mL; in the experiment with N. gonorrhoeae WHO L, greater than 64 µg/mL. The MIC in the experiment on N. gonorrhoeae WHO Q and in the experiment on N. gonorrhoeae WHO Z was greater than 64 µg/mL throughout.

For `CCN1CCN(C(=O)NC(C(=O)N[C@H]2Cc3cccc(C(=O)O)c3OB2O)c2cccc(NC(=O)c3cccnc3)c2)C(=O)C1=O` (stereo partly drawn) [Example 97, (3R)-3-(2-(4-ethyl-2,3-dioxopiperazine-1-carboxamido)-2-(3-(nicotinamido)phenyl)acetamido)-2-hydroxy-3,4-dihydro-2H-benzo[e][1,2]oxaborinine-8-carboxylic acid], the MIC was greater than 64 µg/mL in experiment [1]; 1 to 2 µg/mL (≈ 1.59 to 3.18 µM) in the experiment with N. gonorrhoeae FA1090; greater than 64 µg/mL with N. gonorrhoeae H041; 4 to 8 µg/mL (≈ 6.37 to 12.7 µM) in the experiment with N. gonorrhoeae WHO G; greater than 64 µg/mL in the experiment with N. gonorrhoeae WHO K; greater than 64 µg/mL in the experiment with N. gonorrhoeae WHO L. For the same compound, the MIC in the experiment with N. gonorrhoeae WHO Q and in the experiment on N. gonorrhoeae WHO Z was greater than 64 µg/mL each time.

Turning to `CCN1CCN(C(=O)NC(C(=O)N[C@H]2Cc3cccc(C(=O)O)c3OB2O)c2cccc(NS(N)(=O)=O)c2)C(=O)C1=O` (stereo partly drawn) [Example 98, (3R)-3-(2-(4-ethyl-2,3-dioxopiperazine-1-carboxamido)-2-(3-(sulfamoylamino)phenyl)acetamido)-2-hydroxy-3,4-dihydro-2H-benzo[e][1,2]oxaborinine-8-carboxylic acid], the MIC was 16 to 32 µg/mL (≈ 26.6 to 53.1 µM) in experiment [1]; 0.25 to 0.5 µg/mL (≈ 0.415 to 0.83 µM) in the experiment with N. gonorrhoeae FA1090; 16 to 32 µg/mL (≈ 26.6 to 53.1 µM) with N. gonorrhoeae H041; 1 to 2 µg/mL (≈ 1.66 to 3.32 µM) with N. gonorrhoeae WHO G; 16 to 32 µg/mL (≈ 26.6 to 53.1 µM) in the experiment with N. gonorrhoeae WHO K; greater than 64 µg/mL with N. gonorrhoeae WHO L. The MIC with N. gonorrhoeae WHO Q and in the experiment on N. gonorrhoeae WHO Z was 16 to 32 µg/mL (≈ 26.6 to 53.1 µM) throughout.
